Data as given in publication PMC10815238, “New N-Terminal Fatty-Acid-Modified Melittin Analogs with Potent Biological Activity” (International Journal of Molecular Sciences, 2024).

Key:
[1] = Hydrophobicity assay (RP-HPLC retention time); format: physicochemical; conditions: chromatographic, ChromCore120 C18 column 4.6 x 250 mm 5 μm; 0.1 mg/mL in deionized water; A 0.1% TFA in water, B 0.1% TFA in acetonitrile; 5% B to 90% B over 30 min; 1 mL/min; UV 220 nm; three independent experiments
Text: The hydrophobicity, amphipathicity, and positive charge distribution of lipopeptides are crucial for their antimicrobial activities. Among these, hydrophobicity has been deemed essential for promoting a hydrophobic interaction with the lipid bilayer, leading to membrane disruption, cytoplasm leakage, and eventual cell death. Lipopeptides with different peptide sequences and chain lengths usually show different hydrophobicities, generating different RTs in the RP-HPLC analysis. The more hydrophobic the lipopeptide, the longer the RT on the column.
Each MDL was dissolved and diluted to 0.1 mg/mL in deionized water (obtained in-house) and then subjected to RP-HPLC on a ChromCore120 C18 column (4.6 × 250 mm, 5 μm) (NanoChrom, Suzhou, China) using 0.1% trifluoroacetic acid (TFA) (Macklin, Shanghai, China) in water as solvent A and 0.1% TFA in acetonitrile (Merck, Darmstadt, Germany) as solvent B. The elution gradient was as follows: 5% B to 90% B over 30 min, 90% B maintained for 2 min, and 90% B to 5% B over 1 min. The flow rate was 1 mL/min and measurements were taken at 220 nm. The retention time was recorded for each MDL.

[2] = CD measurements of secondary structure; format: physicochemical; conditions: 0.5 mg/mL, 25 °C
Procedure: The CD spectra of the MDLs were measured at 25 °C on a Chirascan spectrometer (Applied Photophysics, Surrey, UK) using a quartz cell with a 1.0 mm path length, recording from 180 to 260 nm. A scanning speed of 50 nm/min was used and the bandwidth was 1 nm. The optical path and slit width were 0.1 cm and 0.1 nm, respectively. […], 50% TFE (Macklin, Shanghai, China) was used to mimic the hydrophobic condition of the microbial membrane, and 25 mM SDS (Macklin, Shanghai, China) micelles were used to mimic the negatively charged prokaryotic membrane. The observed ellipticity was converted to molar ellipticity using the following equation: θ=θobs(MRW/10×c×l) where [θ] is the molar ellipticity (deg·cm^2·dmol^−1), θobs is the observed ellipticity corrected for the buffer at a given wavelength (mdeg), MRW is the mean residual molecular weight (molecular weight/number of amino acids), c is the peptide concentration (mg/mL), and l is the path length (cm). Assuming lipopeptides were a two-state model, the percentage in the α-helix structure of the MDLs was calculated using the following equation: α-helical content=−([θ]222 +2000)/30,000×100%

E. coli ATCC 25922 = experiment: Salt sensitivity (MIC in the presence of physiological salts); format: cell-based, Escherichia coli; set-up: key to MIC, NaCl / MIC, KCl / MIC, MgCl2: MIC in μg/mL (two-fold dilutions 256 to 0.25 μg/mL); conditions: for MIC, MgCl2: 1 mM MgCl2, unit not given in Table 4; for MIC, FeCl3: 4 mM FeCl3, unit not given in Table 4; for MIC, KCl: 4.5 mM KCl; for MIC, KCl / MIC, NaCl: unit not given in Table 4; for MIC, NaCl: 150 mM NaCl; for MIC, Control: no added salt, unit not given in Table 4 (Table 3 MIC in μg/mL)
Procedure: (§1) MIC was determined using the broth microdilution method with minor modification. In brief, bacteria (S. aureus ATCC 43300, E. faecalis ATCC 29212, E. coli ATCC 25922, P. aeruginosa ATCC 27853, L. monocytogenes CVCC 3764, B. cereus CVCC 4101, S. Castellani CGMCC 1.1869, and the multidrug-resistant E. coli strain) were cultured in nutrient broth (NB) medium (Macklin, Shanghai, China) to the logarithmic phase and diluted to 1 × 10^6 colony forming units (CFUs)/mL. The MDLs were dissolved to a final concentration of 256~0.25 μg/mL in NB medium using two-fold dilutions. A total of 50 μL of different concentrations of the MDL solutions and an equal volume of bacterial suspension were added to a 96-well plate, which was then incubated at 37 °C for 18 h. The minimum concentrations of the MDLs with no visible growth of bacteria were defined as the corresponding MICs. Media containing bacteria without the MDLs were set as the negative control. Each measurement was performed independently three times.
(§2) This was carried out in triplicate and tested at least twice.

S. aureus ATCC 43300 = experiment: as above; format: cell-based, Staphylococcus aureus; set-up: key: MIC in μg/mL (two-fold dilutions 256 to 0.25 μg/mL); conditions: for MIC, MgCl2: 1 mM MgCl2, unit not given in Table 4; for MIC, FeCl3: 4 mM FeCl3, unit not given in Table 4; for MIC, KCl: 4.5 mM KCl; for MIC, KCl / MIC, NaCl: unit not given in Table 4; for MIC, NaCl: 150 mM NaCl; for MIC, Control: no added salt, unit not given in Table 4 (Table 3 MIC in μg/mL)
Procedure: as §1, §2

## CC[C@H](C)[C@H](NC(=O)CNC(C)=O)C(=O)NCC(=O)N[C@@H](C)C(=O)N[C@H](C(=O)N[C@@H](CC(C)C)C(=O)N[C@@H](CCCCN)C(=O)N[C@H](C(=O)N[C@@H](CC(C)C)C(=O)N[C@H](C(=O)N[C@H](C(=O)NCC(=O)N[C@@H](CC(C)C)C(=O)N1CCC[C@H]1C(=O)N[C@@H](C)C(=O)N[C@@H](CC(C)C)C(=O)N[C@H](C(=O)N[C@@H](CO)C(=O)N[C@@H](Cc1c[nH]c2ccccc12)C(=O)N[C@H](C(=O)N[C@@H](CCCCN)C(=O)N[C@@H](CCCNC(=N)N)C(=O)N[C@@H](CCCCN)C(=O)N[C@@H](CCCNC(=N)N)C(=O)N[C@@H](CCC(N)=O)C(=O)N[C@@H](CCC(N)=O)C(N)=O)[C@@H](C)CC)[C@@H](C)CC)[C@@H](C)O)[C@@H](C)O)C(C)C)C(C)C [Peptide C2-Mel]
[1]
  RT, Min (RP-HPLC retention time, measure of hydrophobicity): 12.247 ± 0.021 min
[2]; 25 mM SDS
  α-Helix, %: 20.9%
  β-Fold, %: 19.9%
[2]; 50% TFE
  α-Helix, %: 26.5%
  β-Fold, %: 17.8%
[2]; PBS Buffer
  α-Helix, %: 6%
  β-Fold, %: 32.8%
E. coli ATCC 25922
  MIC, MgCl2: 32
  MIC, FeCl3: 32
  MIC, KCl: 16
  MIC, NaCl: 16
S. aureus ATCC 43300
  MIC, MgCl2: 16
  MIC, FeCl3: 16
  MIC, KCl: 4
  MIC, NaCl: 4
  MIC, Control: 4

## CCCC(=O)NCC(=O)N[C@H](C(=O)NCC(=O)N[C@@H](C)C(=O)N[C@H](C(=O)N[C@@H](CC(C)C)C(=O)N[C@@H](CCCCN)C(=O)N[C@H](C(=O)N[C@@H](CC(C)C)C(=O)N[C@H](C(=O)N[C@H](C(=O)NCC(=O)N[C@@H](CC(C)C)C(=O)N1CCC[C@H]1C(=O)N[C@@H](C)C(=O)N[C@@H](CC(C)C)C(=O)N[C@H](C(=O)N[C@@H](CO)C(=O)N[C@@H](Cc1c[nH]c2ccccc12)C(=O)N[C@H](C(=O)N[C@@H](CCCCN)C(=O)N[C@@H](CCCNC(=N)N)C(=O)N[C@@H](CCCCN)C(=O)N[C@@H](CCCNC(=N)N)C(=O)N[C@@H](CCC(N)=O)C(=O)N[C@@H](CCC(N)=O)C(N)=O)[C@@H](C)CC)[C@@H](C)CC)[C@@H](C)O)[C@@H](C)O)C(C)C)C(C)C)[C@@H](C)CC [Peptide C4-Mel]
[1]
  RT, Min (RP-HPLC retention time, measure of hydrophobicity): 13.704 ± 0.005 min
[2]; 25 mM SDS
  α-Helix, %: 19.3%
  β-Fold, %: 23.8%
[2]; 50% TFE
  α-Helix, %: 20.7%
  β-Fold, %: 25.4%
[2]; PBS Buffer
  α-Helix, %: 6.1%
  β-Fold, %: 33.7%
E. coli ATCC 25922
  MIC, MgCl2: 32
  MIC, FeCl3: 32
  MIC, KCl: 16
  MIC, NaCl: 8
  MIC, Control: 8
S. aureus ATCC 43300
  MIC, MgCl2: 16
  MIC, FeCl3: 16
  MIC, KCl: 4
  MIC, NaCl: 2
  MIC, Control: 2

## CCCCCC(=O)NCC(=O)N[C@H](C(=O)NCC(=O)N[C@@H](C)C(=O)N[C@H](C(=O)N[C@@H](CC(C)C)C(=O)N[C@@H](CCCCN)C(=O)N[C@H](C(=O)N[C@@H](CC(C)C)C(=O)N[C@H](C(=O)N[C@H](C(=O)NCC(=O)N[C@@H](CC(C)C)C(=O)N1CCC[C@H]1C(=O)N[C@@H](C)C(=O)N[C@@H](CC(C)C)C(=O)N[C@H](C(=O)N[C@@H](CO)C(=O)N[C@@H](Cc1c[nH]c2ccccc12)C(=O)N[C@H](C(=O)N[C@@H](CCCCN)C(=O)N[C@@H](CCCNC(=N)N)C(=O)N[C@@H](CCCCN)C(=O)N[C@@H](CCCNC(=N)N)C(=O)N[C@@H](CCC(N)=O)C(=O)N[C@@H](CCC(N)=O)C(N)=O)[C@@H](C)CC)[C@@H](C)CC)[C@@H](C)O)[C@@H](C)O)C(C)C)C(C)C)[C@@H](C)CC [Peptide C6-Mel]
[1]
  RT, Min (RP-HPLC retention time, measure of hydrophobicity): 15.567 ± 0.006 min
[2]; 25 mM SDS
  α-Helix, %: 18.4%
[2]; 50% TFE
  α-Helix, %: 22.4%
[2]; PBS Buffer
  α-Helix, %: 6.5%
E. coli ATCC 25922
  MIC, MgCl2: 16
  MIC, FeCl3: 16
  MIC, KCl: 8
  MIC, NaCl: 4
  MIC, Control: 4
S. aureus ATCC 43300
  MIC, MgCl2: 8
  MIC, FeCl3: 8
  MIC, KCl: 2

## CCCCCCCC(=O)NCC(=O)N[C@H](C(=O)NCC(=O)N[C@@H](C)C(=O)N[C@H](C(=O)N[C@@H](CC(C)C)C(=O)N[C@@H](CCCCN)C(=O)N[C@H](C(=O)N[C@@H](CC(C)C)C(=O)N[C@H](C(=O)N[C@H](C(=O)NCC(=O)N[C@@H](CC(C)C)C(=O)N1CCC[C@H]1C(=O)N[C@@H](C)C(=O)N[C@@H](CC(C)C)C(=O)N[C@H](C(=O)N[C@@H](CO)C(=O)N[C@@H](Cc1c[nH]c2ccccc12)C(=O)N[C@H](C(=O)N[C@@H](CCCCN)C(=O)N[C@@H](CCCNC(=N)N)C(=O)N[C@@H](CCCCN)C(=O)N[C@@H](CCCNC(=N)N)C(=O)N[C@@H](CCC(N)=O)C(=O)N[C@@H](CCC(N)=O)C(N)=O)[C@@H](C)CC)[C@@H](C)CC)[C@@H](C)O)[C@@H](C)O)C(C)C)C(C)C)[C@@H](C)CC [Peptide C8-Mel]
[1]
  RT, Min (RP-HPLC retention time, measure of hydrophobicity): 17.845 ± 0.013 min
[2]; 25 mM SDS
  α-Helix, %: 18.2%
[2]; 50% TFE
  α-Helix, %: 18.8%
[2]; PBS Buffer
  α-Helix, %: 7%
E. coli ATCC 25922
  MIC, MgCl2: 8
  MIC, FeCl3: 8
  MIC, KCl: 8
  MIC, NaCl: 2
  MIC, Control: 2
S. aureus ATCC 43300
  MIC, MgCl2: 8
  MIC, FeCl3: 8
  MIC, NaCl: 0.5
  MIC, Control: 0.5

## CCCCCCCCCC(=O)NCC(=O)N[C@H](C(=O)NCC(=O)N[C@@H](C)C(=O)N[C@H](C(=O)N[C@@H](CC(C)C)C(=O)N[C@@H](CCCCN)C(=O)N[C@H](C(=O)N[C@@H](CC(C)C)C(=O)N[C@H](C(=O)N[C@H](C(=O)NCC(=O)N[C@@H](CC(C)C)C(=O)N1CCC[C@H]1C(=O)N[C@@H](C)C(=O)N[C@@H](CC(C)C)C(=O)N[C@H](C(=O)N[C@@H](CO)C(=O)N[C@@H](Cc1c[nH]c2ccccc12)C(=O)N[C@H](C(=O)N[C@@H](CCCCN)C(=O)N[C@@H](CCCNC(=N)N)C(=O)N[C@@H](CCCCN)C(=O)N[C@@H](CCCNC(=N)N)C(=O)N[C@@H](CCC(N)=O)C(=O)N[C@@H](CCC(N)=O)C(N)=O)[C@@H](C)CC)[C@@H](C)CC)[C@@H](C)O)[C@@H](C)O)C(C)C)C(C)C)[C@@H](C)CC [Peptide C10-Mel]
[1]
  RT, Min (RP-HPLC retention time, measure of hydrophobicity): 20.541 ± 0.029 min
[2]; 25 mM SDS
  α-Helix, %: 17.1%
  β-Fold, %: 28.8%
[2]; 50% TFE
  α-Helix, %: 18.4%
  β-Fold, %: 22.1%
[2]; PBS Buffer
  α-Helix, %: 7.5%
  β-Fold, %: 41.1%
E. coli ATCC 25922
  MIC, MgCl2: 32
  MIC, FeCl3: 32
  MIC, KCl: 16
  MIC, NaCl: 8
  MIC, Control: 8
S. aureus ATCC 43300
  MIC, MgCl2: 32
  MIC, FeCl3: 32
  MIC, KCl: 8
  MIC, NaCl: 2
  MIC, Control: 2
